Laboratory results taken from patent US11666558B2, “Methods of treating intraocular pressure with activators of Tie-2” (EyePoint Pharmaceuticals, Inc., priority 2015, dated 2023).
Read-outs that look alike come from different tables or passages of the source.

Experiment: Ocular tissue concentrations (aqueous humor, vitreous humor, iris, retina, choroid, cornea) after topical ocular, subcutaneous and intravitreal administration
Type: in vivo, New Zealand White rabbits
Conditions: for Cornea Conc. (ng/mL) OS: Cornea homogenate; for Cornea Conc. (ng/mL) OS / concentration at 0.5 h / concentration at 1 h / concentration at 2 h / concentration at 4 h: subcutaneous 5 mg/kg/dose; for concentration at 6 hr / concentration at 24 hr / concentration at 48 hr / concentration at 72 hr / concentration at 0.5 h / concentration at 1 h / concentration at 2 h / concentration at 4 h: New Zealand White, rabbit; for concentration at 6 hr / concentration at 24 hr / concentration at 48 hr / concentration at 72 hr: other: intravitreal, 2.5 mg/eye; for concentration at 0.5 h / concentration at 1 h / concentration at 2 h / concentration at 4 h: subcutaneous, 5 mg/kg/dose
Protocol: To measure the concentration of Compound 1 in plasma and ocular tissues following topical ocular, subcutaneous, and intravitreal administration, New Zealand White rabbits were administered Compound 1, and plasma and ocular samples were collected at pre-determined time points. Compound 1 formulations were prepared fresh on each day of dosing.
Ocular tissue samples from both eyes of each animal were collected and weights were recorded. Plasma and ocular tissue sample concentrations of Compound 1 were determined by LC-MS/MS.
New Zealand White rabbits weighing 2.5 to 3.5 kg were used on this study. Rabbits were housed one per cage. Animals were not fasted and only healthy animals with no ocular illness were used. Two rabbits per group were sacrificed at each of four ocular tissue sampling time points for a total of eight rabbits per group.
Animals were anesthetized for ocular (topical) and intravitreal dosing following the 12IA7 IACUC protocol. Each rabbit received a bolus dose of test formulation either via topical ocular administration 3 times daily on Days 1 and 2 (at 0, 6, and 12 hours), and once on Day 3 (at 0 hours) into both eyes; via intravitreal administration into both eyes once on Day 1 (at 0 hours); or via subcutaneous administration 2 times daily on Days 1 and 2 (at 0 and 8 hours) and once daily on Day 3 (at 0 hours). Doses were given within an approximately 1 hour window each day where applicable.
On Day 1, for intravitreal administration, or on Day 3, for topical ocular and subcutaneous administration, at the appropriate ocular tissue collection time points, animals were euthanized and both eyes were enucleated immediately. Following enucleation, each eye was rinsed with phosphate-buffered saline. Ocular tissue samples from both eyes of each animal were collected at predetermined time points and weights were recorded. All the samples were frozen immediately on dry ice, and stored at −60° C. to −80° C. pending bioanalysis.
An LC-MS/MS method was developed for the determination of Compound 1 in rabbit aqueous tissues (plasma, aqueous and vitreous humor) and solid ocular tissue samples. A pre-study standard curve was analyzed to determine the specificity, range, and lower limit of quantitation of the method. Plasma and tissue homogenate study samples were extracted and analyzed. All the samples were treated identically to the standards.
One eight-point standard curve was used in each analytical batch. To be accepted, each batch must have had at least five of eight standards with accuracy within ±20% of nominal, except at the lower limit of quantification (LLOQ), where ±25% was acceptable.
Concentration versus time data is plotted in FIGS. 3-16. All data are expressed as ng/g of the free drug. Samples that were below the limit of quantitation (0.2 ng/mL) were not used in the calculation of averages.

[1] = choroid homogenate, Choroid homogenate, left eye, intravitreal 2.5 mg/eye (group 5), individual animals, read-out: Conc. (ng/mL) OS
[2] = choroid homogenate, Choroid homogenate, OD, sodium salt, intravitreal 2.5 mg/eye, Group 4, read-out: Choroid Conc. (ng/mL) OD
[3] = choroid homogenate, Choroid homogenate, OS, sodium salt, intravitreal 2.5 mg/eye, Group 4, read-out: Choroid Conc. (ng/mL) OS
[4] = choroid homogenate, Choroid homogenate, right eye, intravitreal 2.5 mg/eye (group 5), individual animals, read-out: Conc. (ng/mL) OD
[5] = choroid homogenate, Choroid homogenate, OD, sodium salt, Group 2, read-out: Choroid Conc. (ng/mL) OD
[6] = choroid homogenate, Choroid homogenate, OS, sodium salt, Group 2, read-out: Choroid Conc. (ng/mL) OS
[7] = choroid, Choroid, OD, sodium salt, intravitreal 2.5 mg/eye, Group 4, read-out: Choroid Conc. (ng/g) OD
[8] = choroid, Choroid, OS, sodium salt, intravitreal 2.5 mg/eye, Group 4, read-out: Choroid Conc. (ng/g) OS
[9] = choroid, Choroid, average, intravitreal 2.5 mg/eye (group 5), read-out: Avg.
[10] = choroid, Choroid, left eye, intravitreal 2.5 mg/eye (group 5), individual animals, read-out: Conc. (ng/g) OS
[11] = choroid, Choroid, sodium salt, intravitreal 2.5 mg/eye, Group 4, read-out: Choroid Avg.
[12] = choroid, Choroid, right eye, intravitreal 2.5 mg/eye (group 5), individual animals, read-out: Conc. (ng/g) OD
[13] = choroid, Choroid, OD, sodium salt, Group 2, read-out: Choroid Conc. (ng/g) OD
[14] = choroid, Choroid, OS, sodium salt, Group 2, read-out: Choroid Conc. (ng/g) OS
[15] = choroid, Choroid, free acid, Group 3, read-out: Choroid Average
[16] = choroid, Choroid, sodium salt, Group 2, read-out: Choroid Average

COC(=O)N[C@@H](Cc1ccccc1)C(=O)N[C@@H](Cc1ccc(NS(=O)(=O)O)cc1)c1csc(-c2cccs2)n1 [Compound 1]
Cornea Conc. (ng/mL) OS (1 hr, OS, free acid, Group 3): BLOQ (Below the limit of quantitation (0.5 ng/mL))
Cornea Conc. (ng/mL) OS (2 hr, OS, free acid, Group 3): BLOQ (Below the limit of quantitation (0.5 ng/mL))
concentration at 6 hr [1]: 63400 ng/mL
concentration at 24 hr [2]: 11800 ng/mL
concentration at 24 hr [3]: 9890 ng/mL
concentration at 24 hr [1]: 28400 ng/mL
concentration at 48 hr [2]: 3480 ng/mL
concentration at 48 hr [3]: 3740 ng/mL
concentration at 48 hr [1]: 9320 ng/mL
concentration at 48 hr [4]: 9940 ng/mL
concentration at 72 hr [3]: 282 ng/mL
concentration at 72 hr [1]: 2660 ng/mL
concentration at 72 hr [4]: 2180 ng/mL
concentration at 0.5 h [5]: 24 ng/mL
concentration at 0.5 h (choroid homogenate, Choroid homogenate, OS, free acid, Group 3, read-out: Choroid Conc. (ng/mL) OS): 7.55 ng/mL
concentration at 0.5 h [6]: 25.6 ng/mL
concentration at 1 h (choroid homogenate, Choroid homogenate, 1 hr, OD, free acid, Group 3, read-out: Choroid Conc. (ng/mL) OD): 6.04 ng/mL
concentration at 1 h (choroid homogenate, Choroid homogenate, 1 hr, OD, sodium salt, Group 2, read-out: Choroid Conc. (ng/mL) OD): 29.1 ng/mL
concentration at 1 h (choroid homogenate, Choroid homogenate, 1 hr, OS, free acid, Group 3, read-out: Choroid Conc. (ng/mL) OS): 8.01 ng/mL
concentration at 1 h (choroid homogenate, Choroid homogenate, 1 hr, OS, sodium salt, Group 2, read-out: Choroid Conc. (ng/mL) OS): 13.1 ng/mL
concentration at 2 h (choroid homogenate, Choroid homogenate, 2 hr, OD, free acid, Group 3, read-out: Choroid Conc. (ng/mL) OD): 3.32 ng/mL
concentration at 2 h (choroid homogenate, Choroid homogenate, 2 hr, OS, free acid, Group 3, read-out: Choroid Conc. (ng/mL) OS): 4.84 ng/mL
concentration at 4 h (choroid homogenate, Choroid homogenate, OD, free acid, Group 3, read-out: Choroid Conc. (ng/mL) OD): 4.82 ng/mL
concentration at 4 h [5]: 1.7 ng/mL
concentration at 4 h [6]: 1.22 ng/mL
concentration at 0.5 h (choroid homogenate, TABLE 16: Choroid homogenate, OS, free acid, Group 3, read-out: Choroid Conc. (ng/mL) OS): 7.55 ng/mL
concentration at 1 h (choroid homogenate, TABLE 16: Choroid homogenate, 1 hr, OD, free acid, Group 3, read-out: Choroid Conc. (ng/mL) OD): 6.04 ng/mL
concentration at 1 h (choroid homogenate, TABLE 16: Choroid homogenate, 1 hr, OS, free acid, Group 3, read-out: Choroid Conc. (ng/mL) OS): 8.01 ng/mL
concentration at 2 h (choroid homogenate, TABLE 16: Choroid homogenate, 2 hr, OD, free acid, Group 3, read-out: Choroid Conc. (ng/mL) OD): 3.32 ng/mL
concentration at 2 h (choroid homogenate, TABLE 16: Choroid homogenate, 2 hr, OS, free acid, Group 3, read-out: Choroid Conc. (ng/mL) OS): 4.84 ng/mL
concentration at 4 h (choroid homogenate, TABLE 16: Choroid homogenate, OD, free acid, Group 3, read-out: Choroid Conc. (ng/mL) OD): 4.82 ng/mL
concentration at 6 hr [7]: 346000 ng/g
concentration at 6 hr [8]: 484000 ng/g
concentration at 6 hr [9]: 664000 ng/g
concentration at 6 hr [10]: 697000 ng/g
concentration at 6 hr [11]: 947000 ng/g
concentration at 24 hr [7]: 130000 ng/g
concentration at 24 hr [8]: 109000 ng/g
concentration at 24 hr [9]: 398000 ng/g
concentration at 24 hr [10]: 312000 ng/g
concentration at 24 hr [11]: 139000 ng/g
concentration at 48 hr [7]: 38300 ng/g
concentration at 48 hr [8]: 41100 ng/g
concentration at 48 hr [9]: 120000 ng/g
concentration at 48 hr [10]: 103000 ng/g
concentration at 48 hr [12]: 109000 ng/g
concentration at 48 hr [11]: 38600 ng/g
concentration at 72 hr [8]: 3100 ng/g
concentration at 72 hr [9]: 27600 ng/g
concentration at 72 hr [10]: 29300 ng/g
concentration at 72 hr [12]: 24000 ng/g
concentration at 72 hr [11]: 2720 ng/g
concentration at 0.5 h [13]: 264 ng/g
concentration at 0.5 h (choroid, Choroid, OS, free acid, Group 3, read-out: Choroid Conc. (ng/g) OS): 83.1 ng/g
concentration at 0.5 h [14]: 282 ng/g
concentration at 0.5 h [15]: 127 ng/g
concentration at 0.5 h [16]: 266 ng/g
concentration at 1 h (choroid, Choroid, 1 hr, OD, free acid, Group 3, read-out: Choroid Conc. (ng/g) OD): 66.4 ng/g
concentration at 1 h (choroid, Choroid, 1 hr, OD, sodium salt, Group 2, read-out: Choroid Conc. (ng/g) OD): 320 ng/g
concentration at 1 h (choroid, Choroid, 1 hr, OS, free acid, Group 3, read-out: Choroid Conc. (ng/g) OS): 88.1 ng/g
concentration at 1 h (choroid, Choroid, 1 hr, OS, sodium salt, Group 2, read-out: Choroid Conc. (ng/g) OS): 144 ng/g
concentration at 1 h (choroid, Choroid, 1 hr, free acid, Group 3, read-out: Choroid Average): 83.3 ng/g
concentration at 1 h (choroid, Choroid, 1 hr, sodium salt, Group 2, read-out: Choroid Average): 200 ng/g
concentration at 2 h (choroid, Choroid, 2 hr, OD, free acid, Group 3, read-out: Choroid Conc. (ng/g) OD): 36.5 ng/g
concentration at 2 h (choroid, Choroid, 2 hr, OS, free acid, Group 3, read-out: Choroid Conc. (ng/g) OS): 53.2 ng/g
concentration at 2 h (choroid, Choroid, 2 hr, free acid, Group 3, read-out: Choroid Average): 47.7 ng/g
concentration at 2 h (choroid, Choroid, 2 hr, sodium salt, Group 2, read-out: Choroid Average): 68.8 ng/g
concentration at 4 h (choroid, Choroid, OD, free acid, Group 3, read-out: Choroid Conc. (ng/g) OD): 53 ng/g
concentration at 4 h [13]: 18.7 ng/g
concentration at 4 h [14]: 13.4 ng/g
concentration at 4 h [15]: 61 ng/g
concentration at 4 h [16]: 15.5 ng/g
concentration at 0.5 h (choroid, TABLE 16: Choroid, OS, free acid, Group 3, read-out: Choroid Conc. (ng/g) OS): 83.1 ng/g
concentration at 0.5 h (choroid, TABLE 16: Choroid, free acid, Group 3, read-out: Choroid Average): 127 ng/g
concentration at 1 h (choroid, TABLE 16: Choroid, 1 hr, OD, free acid, Group 3, read-out: Choroid Conc. (ng/g) OD): 66.4 ng/g
concentration at 1 h (choroid, TABLE 16: Choroid, 1 hr, OS, free acid, Group 3, read-out: Choroid Conc. (ng/g) OS): 88.1 ng/g
concentration at 1 h (choroid, TABLE 16: Choroid, 1 hr, free acid, Group 3, read-out: Choroid Average): 83.3 ng/g
concentration at 2 h (choroid, TABLE 16: Choroid, 2 hr, OD, free acid, Group 3, read-out: Choroid Conc. (ng/g) OD): 36.5 ng/g
